Measurements taken from patent US10952433B2, “Solutions for enhancing the effectiveness of insecticides and fungicides on living plants and related methods” (priority 2015, dated 2021).
Like-named read-outs stand apart in the source and are kept apart here.

Legend:
[1] = system: lepidopteran larvae: cabbage loopers (Trichoplusia ni) and beet armyworms (Spodoptera exigua); type: in vivo; conditions: leaf discs
Description: A second series of tests involved romaine lettuce discs approximately ⅝ inch in diameter. (L. sativa). They were dipped in the treatment solution one second per disc. This test involved the 5/5 configuration, i.e., 5 treated and 5 untreated. The infestation involved […] lepidopteran larvae at the 3rd to 4th instar development per container: four cabbage loopers (Trichoplusia ni), and four beet armyworms (Spodoptera exigua) were employed. The test containers were placed in a dark humidity cabinet at 15° C. and 80% relative humidity. Visual evaluations of the average percent damage were taken at 24, 48 and 72 hours after the initiation of infestation. Damage was evaluated in 5% increments based on total disc area.
In the tests reported in Table 8 pages 29-32), romaine lettuce leaf discs ⅝″ in diameter (L. sativa) were dipped in the treatment solution for about one second per disc. Infestation was provided by eight lepidopteran larvae at the 3rd to 4th instar development per container. Four cabbage loopers (Trichoplusia ni) and four beet armyworms (Spodoptera exigua) were employed in infestation. The containers were placed in a dark humidity cabinet at 15° C. and 80% relative humidity. Visual observations of the average percent damage was taken at 24, 48 and 72 hours after infestation. Damage evaluation was by 5% increments over the total disc area.
In the tests results provided in Table 8, the identity and concentrations of the insecticide was identical to the tests results reported in Table 7. The concentration of 200:1 was employed for the no amino oxide, no buffer and buffered amine oxide system. This series of tests, however, reported how the percent damage changed with time at the respective 24, 48 and 72 hour intervals.

[2] = system: lepidopteran larvae: cabbage loopers (Trichoplusia ni) and beet armyworms (Spodoptera exigua); type: in vivo; conditions: plants
Experimental: In a first group of tests, the results of which are shown in Table 7 (pages 22-24), romaine lettuce plants two to three inches in height were exposed to 10 milliliters of solution applied to each plant using a low volume trigger spray. With respect to containers 0-7, ten plants were employed per container, nine were treated and one was an internal control. In containers M-H, ten plants per container were used, five were treated and 5 were internal controls. Each container was infested with 30 lepidopteran larvae between the 5th and 6th instar development. Fifteen cabbage loopers (Trichoplusia ni) and 15 beet armyworms (Spodoptera exigua) were used to infest the romaine lettuce plants. Visual evaluations for the average percentage total surface area damage were taken 24 hours after infestation. Percentage damage was evaluated by 5% increments for total damage across all plant leaves.
As indicated in the first column of Table 7, in some tests, no insecticide was employed and there were two controls; a no water control and a no dye control. A wide variety of insecticides selected from the following group were tested: Chlorantranilopril, Acephate, Methoxyfenozide, Spinosad, Permethrin, and Indoxacarb. The product concentration is shown in PPM in column 2. Column 3 is divided into two subunits, the first being CO3 and the second, PO4. In all instances in columns 3, 4 and 5 and their sub-columns, the concentrations used were 200:1. The fourth column employed amine oxide, but no buffer. […] Two sub-columns each are represented for CO3 and PO4. The final column is a reading of the Percent Lepidopteran Damage to the romaine lettuce plants after 24 hours.
In addition to testing the buffered amine system of the present invention with the two amine oxides identified as CO3 and PO4 and their use with 12 carbon length and a mixture of 12 and 18 designated 1218 for comparative data purposes various differences were created in the testing. Some of the tests were performed with (a) no insecticide along with (b) no amine oxide for CO3 and PO4 and (c) with no buffer, but with amine oxide. Also, tests were run using no insecticide and no water control with no foliar application being made. Tests with no insecticide and no dye control employed foliar application of water only. The tests were conducted with all of the testing on the buffer alone, the amine oxide alone and the buffered amine oxide system of the present invention in the concentration of 200:1.

[3] = insecticide + CO3 buffer 200:1, no amine oxide, PPM: Chlorantranilopril 60, Acephate 70, Methoxyfenozide 100, Spinosad 30, Permethrin 10, Indoxacarb 50
[4] = insecticide + PO4 buffer 200:1, no amine oxide, PPM: Chlorantranilopril 60, Acephate 70, Methoxyfenozide 100, Spinosad 30, Permethrin 10, Indoxacarb 50
[5] = insecticide + amine oxide 12, no buffer, 200:1, PPM: Chlorantranilopril 60, Acephate 70, Methoxyfenozide 100, Spinosad 30, Permethrin 10, Indoxacarb 50
[6] = insecticide + amine oxide 1218, no buffer, 200:1, PPM: Chlorantranilopril 60, Acephate 70, Methoxyfenozide 100, Spinosad 30, Permethrin 10, Indoxacarb 50
[7] = insecticide + buffered amine oxide system CO3, 12, 200:1, PPM: Chlorantranilopril 60, Acephate 70, Methoxyfenozide 100, Spinosad 30, Permethrin 10, Indoxacarb 50
[8] = insecticide + buffered amine oxide system CO3, 1218, 200:1, PPM: Chlorantranilopril 60, Acephate 70, Methoxyfenozide 100, Spinosad 30, Permethrin 10, Indoxacarb 50
[9] = insecticide + buffered amine oxide system PO4, 12, 200:1, PPM: Chlorantranilopril 60, Acephate 70, Methoxyfenozide 100, Spinosad 30, Permethrin 10, Indoxacarb 50
[10] = insecticide + buffered amine oxide system PO4, 1218, 200:1, PPM: Chlorantranilopril 60, Acephate 70, Methoxyfenozide 100, Spinosad 30, Permethrin 10, Indoxacarb 50
[11] = insecticide alone, highest, PPM: Chlorantranilopril 120, Acephate 140, Methoxyfenozide 200, Spinosad 60, Permethrin 20, Indoxacarb 100
[12] = insecticide alone, increased, PPM: Chlorantranilopril 90, Acephate 105, Methoxyfenozide 150, Spinosad 45, Permethrin 15, Indoxacarb 75
[13] = insecticide alone, PPM: Chlorantranilopril 60, Acephate 70, Methoxyfenozide 100, Spinosad 30, Permethrin 10, Indoxacarb 50

Compound: COP(=O)(NC(C)=O)SC (centres unmarked) [Acephate]
- Percent Lepidopteran Damage to Romaine Lettuce 24 hr [1, 3]: 50.0%
- Percent Lepidopteran Damage to Romaine Lettuce 24 hr [1, 4]: 38.5%
- Percent Lepidopteran Damage to Romaine Lettuce 24 hr [1, 5]: 27.0%
- Percent Lepidopteran Damage to Romaine Lettuce 24 hr [1, 6]: 22.0%
- Percent Lepidopteran Damage to Romaine Lettuce 24 hr [1, 7]: 34.0%
- Percent Lepidopteran Damage to Romaine Lettuce 24 hr [1, 8]: 29.5%
- Percent Lepidopteran Damage to Romaine Lettuce 24 hr [1, 9]: 43.5%
- Percent Lepidopteran Damage to Romaine Lettuce 24 hr [1, 10]: 18.0%
- Percent Lepidopteran Damage to Romaine Lettuce 24 hr [1, 11]: 29.0%
- Percent Lepidopteran Damage to Romaine Lettuce 24 hr [1, 12]: 27.0%
- Percent Lepidopteran Damage to Romaine Lettuce 24 hr [1, 13]: 27.5%
- Percent Lepidopteran Damage to Romaine Lettuce 48 hr [1, 3]: 57.5%
- Percent Lepidopteran Damage to Romaine Lettuce 48 hr [1, 4]: 53.0%
- Percent Lepidopteran Damage to Romaine Lettuce 48 hr [1, 5]: 49.5%
- Percent Lepidopteran Damage to Romaine Lettuce 48 hr [1, 6]: 52.5%
- Percent Lepidopteran Damage to Romaine Lettuce 48 hr [1, 7]: 63.5%
- Percent Lepidopteran Damage to Romaine Lettuce 48 hr [1, 8]: 50.5%
- Percent Lepidopteran Damage to Romaine Lettuce 48 hr [1, 9]: 55.5%
- Percent Lepidopteran Damage to Romaine Lettuce 48 hr [1, 10]: 32.5%
- Percent Lepidopteran Damage to Romaine Lettuce 48 hr [1, 11]: 35.5%
- Percent Lepidopteran Damage to Romaine Lettuce 48 hr [1, 12]: 44.5%
- Percent Lepidopteran Damage to Romaine Lettuce 48 hr [1, 13]: 47.5%
- Percent Lepidopteran Damage to Romaine Lettuce 72 hr [1, 3]: 61.0%
- Percent Lepidopteran Damage to Romaine Lettuce 72 hr [1, 4]: 68.5%
- Percent Lepidopteran Damage to Romaine Lettuce 72 hr [1, 5]: 59.5%
- Percent Lepidopteran Damage to Romaine Lettuce 72 hr [1, 6]: 67.0%
- Percent Lepidopteran Damage to Romaine Lettuce 72 hr [1, 7]: 66.0%
- Percent Lepidopteran Damage to Romaine Lettuce 72 hr [1, 8]: 63.5%
- Percent Lepidopteran Damage to Romaine Lettuce 72 hr [1, 9]: 72.0%
- Percent Lepidopteran Damage to Romaine Lettuce 72 hr [1, 10]: 51.0%
- Percent Lepidopteran Damage to Romaine Lettuce 72 hr [1, 11]: 42.0%
- Percent Lepidopteran Damage to Romaine Lettuce 72 hr [1, 12]: 47.0%
- Percent Lepidopteran Damage to Romaine Lettuce 72 hr [1, 13]: 79.5%
- Percent Lepidopteran Damage to Romaine Lettuce 24 hr [2, 3]: 31.0%
- Percent Lepidopteran Damage to Romaine Lettuce 24 hr [2, 4]: 20.0%
- Percent Lepidopteran Damage to Romaine Lettuce 24 hr [2, 5]: 36.0%
- Percent Lepidopteran Damage to Romaine Lettuce 24 hr [2, 6]: 28.0%
- Percent Lepidopteran Damage to Romaine Lettuce 24 hr [2, 7]: 11.5%
- Percent Lepidopteran Damage to Romaine Lettuce 24 hr [2, 8]: 4.5%
- Percent Lepidopteran Damage to Romaine Lettuce 24 hr [2, 9]: 7.5%
- Percent Lepidopteran Damage to Romaine Lettuce 24 hr [2, 10]: 1.0%
- Percent Lepidopteran Damage to Romaine Lettuce 24 hr [2, 11]: 13.0%
- Percent Lepidopteran Damage to Romaine Lettuce 24 hr [2, 12]: 16.5%
- Percent Lepidopteran Damage to Romaine Lettuce 24 hr [2, 13]: 22.7%
